The values below come from ChEMBL document CHEMBL1221193, “Deconstructing fragment-based inhibitor discovery” (Nat Chem Biol, 2006).

For the assay, the target named is Beta-lactamase (Escherichia coli K-12, UniProt P00811). The assay can be described thus: Inhibition of Escherichia coli AmpC assessed as nitrocefin hydrolysis by UV-Vis spectrophotometry.
Chain of Beta-lactamase (P00811 whole entry): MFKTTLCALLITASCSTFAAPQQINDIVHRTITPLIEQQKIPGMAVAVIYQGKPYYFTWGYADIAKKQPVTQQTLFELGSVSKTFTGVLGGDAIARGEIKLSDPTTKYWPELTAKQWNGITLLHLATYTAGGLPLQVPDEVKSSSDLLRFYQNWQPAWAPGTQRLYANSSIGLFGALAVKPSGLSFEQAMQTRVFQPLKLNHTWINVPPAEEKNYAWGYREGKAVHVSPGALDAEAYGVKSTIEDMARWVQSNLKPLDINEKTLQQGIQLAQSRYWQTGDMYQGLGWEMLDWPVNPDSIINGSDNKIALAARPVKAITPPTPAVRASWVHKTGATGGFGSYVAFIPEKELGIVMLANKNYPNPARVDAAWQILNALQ
As usually defined, the Ki is a measure of affinity in units of concentration, obtained from inhibition or displacement. Turning to `O=C(O)c1ccc(NS(=O)(=O)c2ccsc2C(=O)O)c(O)c1`, the Ki is 0.001 mM.

As for `O=C(O)c1cccs1` [THIOPHENE CARBOXYLIC ACID], the Ki was found to be 40 mM.

Regarding `CS(=O)(=O)Nc1ccc(C(=O)O)cc1`, the Ki came to 10 mM.
